{"source": "patent US20140309229A1", "about": "“METHODS FOR SELECTING AND TREATING CANCER IN PATIENTS WITH IGF-1R/IR INHIBITORS” (priority 2011, published 2014)", "key": {"LS-411N": {"system": "LS-411N", "experiment": "MTS proliferation assay", "assay_type": "cell-based, human", "experimental": "(§1) Cell lines and in vitro cytotoxicity assay. Cells were maintained at 37° C. under standard cell culture conditions. Cells were plated at an optimized density for each cell line per well in 96-well microtiter FALCON® plates, incubated overnight, and then exposed to a serial dilution of drug. […] The results were expressed as an IC50, which is the drug concentration required to inhibit cell proliferation to 50% of that of untreated control cells. The mean IC50 and standard deviation (SD) from multiple tests for each cell line were calculated.\n(§2) In vitro Cellular Proliferation Assays."}, "CW-2": {"system": "CW-2", "experiment": "MTS proliferation assay", "assay_type": "cell-based, human", "experimental": "as §1, §2"}, "DLD-1": {"system": "DLD-1", "experiment": "MTS proliferation assay", "assay_type": "cell-based, human", "settings": "for pIC50: Homo sapiens", "experimental": "as §1, §2"}, "[1]": {"settings": "patients at minimum efficacious dose, phase I solid tumor trials; cited from earlier work"}, "[2]": {"system": "panel of 60 CRC cell lines", "experiment": "MTS proliferation assay, whole panel", "assay_type": "cell-based, human", "settings": "read-out: IC50, range of sensitivity across the panel", "experimental": "as §1, §2"}}, "note": "pIC50: −log10 of the molar value.", "data": [{"smiles": "C[C@@]1(C(=O)Nc2ccc(F)nc2)CCCN1c1nc(Nc2cc(C3CC3)n[nH]2)c2cccn2n1", "note": "[BMS-754807, (2S)-1-(4-((5-cyclopropyl-1H-pyrazol-3-yl)amino)pyrrolo[2,1-f][1,2,4]triazin-2-yl)-N-(6-fluoro-3-pyridinyl)-2-methyl-2-pyrrolidinecarboxamide]", "values": [{"measurement": "pIC50", "setting": "LS-411N; Homo sapiens, LS-411N, 72 h", "result": 7.00}, {"measurement": "Sensitivity to BMS-754807", "setting": "LS-411N; LS411N, preliminary panel of 45 CRC cell lines", "result": "Intermediate (remaining 30 cell lines classified as Intermediate or resistant)"}, {"measurement": "Sensitivity Classes", "setting": "LS-411N; LS-411N", "result": "R (“R” refers Resistant)"}, {"measurement": "Sensitivity Classes", "setting": "CW-2; CW-2", "result": "R (“R” refers Resistant)"}, {"measurement": "pIC50", "setting": "CW-2; Homo sapiens, CW-2, 72 h", "result": 6.23}, {"measurement": "Sensitivity Classes", "setting": "DLD-1; DLD-1", "result": "R (“R” refers Resistant)"}, {"measurement": "Sensitivity to BMS-754807", "setting": "DLD-1; DLD-1, preliminary panel of 45 CRC cell lines", "result": "Resistant (resistant cell lines had IC50 values of >50 nmol/L)"}, {"measurement": "pIC50", "setting": "DLD-1; DLD-1", "result": 6.18}, {"measurement": "pIC50", "setting": "DLD-1; DLD-1, 72 h", "result": 6.18}, {"measurement": "average plasma concentration at steady state", "setting": "[1]", "result": "> 50", "unit": "nmol/L"}, {"measurement": "pIC50", "setting": "[2]", "result": "5.26 to 8.52"}]}]}
